Starred links: 1 amine or outer side, 2 acyl side, 3 side chain; linkers in the order of their positions; H or OH if unused. Positions of bridges follow the written chain, without caps; N, C: chain ends. Non-standard residues stand in square brackets, D forms with d. Residues, ends and D or L forms follow the SMILES beside them. *: point of attachment. pTerphenylCO(4''-OnC5H11) = CCCCCOc1ccc(-c2ccc(-c3ccc(C(=O)*)cc3)cc2)cc1; Orn(4R-OH,5R-OH) = O=C([C@H](C[C@@H](O)[C@@H](O)N[*:3])N[*:1])[*:2]; hTyr(3S-OH,4S-OH) = N[C@H](C(=O)O)[C@H](O)[C@@H](O)c1ccc(O)cc1; Pro(3S-OH,4S-Me) = C[C@H]1CN[C@H](C(=O)O)[C@H]1O; Hyp = O=C(O)[C@@H]1C[C@@H](O)CN1
Assays:
[1] = cited from earlier work
[2] = mice; cited from earlier work
[3] = parameters: species or system male pigmented Long-Evans rats; conditions: rat, in vivo
Experimental: As a first step of the feasibility evaluation, the tissue distribution of SCY-078 was evaluated in an animal model. […] WH rats were used for mass balance and pharmacokinetic (PK) determinations after i.v. and oral doses, and both WH and LE rats were used for Quantitative whole-body autoradiography (QWBA) determinations. Dose levels were selected to reflect the clinically relevant 11.2-μg·h/ml target exposure for Candida spp. infections. The concentration, homogeneity, radio purity, and stability of dosing formulations were confirmed to be acceptable before dosing. For QWBA whole-body sections (˜40 μm thick via Leica CM3600 cryomicrotome; Nussloch, Germany), where all major tissues, organs, and biological fluids were represented, sections were exposed for phosphor imaging (Fuji Biomedical, Stamford, Conn.) together with calibration standards. […] Quantification was performed by image densitometry with MCID image analysis software (v. 7.0; Interfocus Imaging Ltd., Linton, Cambridge, UK), and a standard curve was constructed from the integrated response (molecular dynamics counts [MDC]/mm2) and the nominal concentrations of the 14C-calibration standards. The concentrations of radioactivity were expressed as [14C]SCY-078 μg equiv/g tissue. The lower limit of quantitation was 0.024 and 0.049 μg equiv/g of tissue for i.v. and oral doses of SCY-078, respectively. […]

[4] = tested on: Candida albicans spondylodiscitis; type: in vivo, human; conditions: Example A: person, Candida albicans spondylodiscitis L4/L5; oral 750 mg BID 2 days then 750 mg QD (citrate salt tablets); 277 days of treatment
Text: (§1) This example presents treatment courses of two patients with Candida spondylodiscitis who were enrolled in an “Open-Label Study to Evaluate Efficacy and Safety of SCY-078 in Patients With Refractory or Intolerant Fungal Diseases (FURI)” (clinicaltrials.gov identifier NCT03059992).
(§2) Objective: The objective of the study is to evaluate the efficacy of orally administered SCY-078 for the treatment of fungal infections that are refractory to or intolerant of approved antifungal agents.
(§3) Study design: This is a multicenter, open-label, non-comparator, single-arm study to evaluate the efficacy, safety, and pharmacokinetics (PK) of SCY-078 (administered as the citrate salt) in male and female subjects≥18 years of age with documented invasive and/or severe candidiasis that has been refractory to or intolerant of, or has shown toxicities associated with standard of care (SoC) antifungal treatment. Subjects must have a documented eligible acute or chronic invasive candidiasis (including candidemia) and meet all study criteria to be considered for enrollment. […]
(§4) Efficacy: Efficacy will be assessed primarily in terms of global success (both clinical success and mycological success). Complete global response, partial global response, clinical success, and mycological success will also be assessed. […]

[5] = tested on: Candida tropicalis spondylodiscitis; type: in vivo, human; conditions: Example B: person, Candida tropicalis spondylodiscitis L5/S1; oral 750 mg BID 2 days then 750 mg QD (citrate salt tablets); 88 days of treatment
Text: as §1, §2, §3, §4

[6] = tested on: Candida and non-Candida isolates causing fungaemia; conditions: 178 Candida and non-Candida isolates causing fungaemia; EUCAST E Def 7.3 and CLSI M27-A3; cited from earlier work
[7] = tested on: sessile (biofilm) forms of Candida and non-Candida isolates; conditions: XTT reduction assay, confirmed by scanning electron microscopy; cited from earlier work

CCCCCOc1ccc(-c2ccc(-c3ccc(C(=O)N[C@H]4C[C@@H](O)[C@@H](O)NC(=O)[C@@H]5[C@@H](O)[C@@H](C)CN5C(=O)[C@H]([C@@H](C)O)NC(=O)[C@H]([C@H](O)[C@@H](O)c5ccc(O)cc5)NC(=O)[C@@H]5C[C@@H](O)CN5C(=O)[C@H]([C@@H](C)O)NC4=O)cc3)cc2)cc1 [anidulafungin] ({pTerphenylCO(4''-OnC5H11)}-[Orn(4R-OH,5R-OH)]T[Hyp][hTyr(3S-OH,4S-OH)]T[Pro(3S-OH,4S-Me)]; lactam 1-C)
bone/plasma concentration ratio ([1]; neonatal rats after a single dose): 0.21
skeletal muscle concentrations compared with plasma ([1]; rats): comparable to those in plasma

CC[C@H](C)C[C@H](C)CCCCCCCCC(=O)N[C@H]1C[C@@H](O)[C@@H](NCCN)NC(=O)[C@@H]2[C@@H](O)CCN2C(=O)[C@H]([C@H](O)CCN)NC(=O)[C@H]([C@H](O)[C@@H](O)c2ccc(O)cc2)NC(=O)[C@@H]2C[C@@H](O)CN2C(=O)[C@H]([C@@H](C)O)NC1=O [caspofungin]
skeletal muscle concentrations as % of those in plasma [2]: less than 50%

CC(C)[C@@H](C)[C@@]1(C)CC[C@]2(C)[C@H]3CC[C@@H]4[C@@]5(COC[C@@]4(C)[C@@H](OC[C@](C)(N)C(C)(C)C)[C@H](n4ncnc4-c4ccncc4)C5)C3=CC[C@@]2(C)[C@@H]1C(=O)O [SCY-078, (1S,4aR,6aS,7R,8R,10aR,10bR,12aR,14R,15R)-15-[[(2R)-2-amino-2,3,3-trimethylbutyl]oxy]-8-[(1R)-1,2-dimethylpropyl]-14-[5-(4-pyridinyl)-1H-1,2,4-triazol-1-yl]-1,6,6a,7,8,9,10,10a,10b,11,12,12a-dodecahydro-1,6a,8,10a-tetramethyl-4H-1,4a-propano-2H-phenanthro[1,2-c]pyran-7-carboxylic acid]
exposure observed in bone compared with plasma [3]: exceeded the exposure measured in plasma
exposure observed in bone marrow compared with plasma [3]: exceeded the exposure measured in plasma
patient's response to date [4]: improved
patient's response to date [5]: resolved
in vitro activity against planktonic form [6]: potent in vitro activity
antibiofilm activity [7]: activity against the biofilms
